Data from PubChem BioAssay AID1552 (Sanford-Burnham Center for Chemical Genomics, 2009).
Activity calls are given as the source filed them. No rule for the calls is given here.

The compounds below were run against Ubiquitin-conjugating enzyme E2 N (Homo sapiens) (UniProt P61088) (assay: UBE2N binders by NMR, biophysical, purified protein (AID 1552)). Details: NMR binding to purified UBE2N.
Ubiquitin-conjugating enzyme E2 N (Homo sapiens), sequence (P61088 whole entry, looked up): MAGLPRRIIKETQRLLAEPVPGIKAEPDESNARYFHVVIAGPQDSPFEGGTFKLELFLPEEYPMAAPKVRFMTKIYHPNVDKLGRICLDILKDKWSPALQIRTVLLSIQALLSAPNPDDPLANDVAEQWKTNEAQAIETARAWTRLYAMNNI

Compound | Kd
S=C(Nc1ccc2nccnc2c1)N1CCOCC1 | > 4 mM (inactive)
COc1ccc2c(c1)OC1(O)COc3cc(OC)c(OC)cc3C1=C2 (stereo not given) | > 4 mM (inactive)
Cc1nc(-c2ccccc2)sc1CO | > 4 mM (inactive)
O=c1ccc(=O)n(CN2CCc3ccccc3C2)[nH]1 | > 4 mM (inactive)
CC1=NN(c2ccc(C)cc2)C(=O)C1 | > 4 mM (inactive)
Cc1occc1C(=O)NCc1ccccc1F | > 4 mM (inactive)
O=C(/C=C(\O)c1ccccc1)c1ccccc1O | > 4 mM (inactive)
COc1cc(OC)c(-c2c(OC)cc(OC)cc2OC)c(OC)c1 | > 4 mM (inactive)
Cn1c(=O)c2[nH]cnc2n(-c2ccccc2)c1=O | > 4 mM (inactive)
COC(=O)C1=CCCN(C)C1 | > 4 mM (inactive)
COc1cc([C@@H]2c3cc4c(cc3[C@H](OC(C)=O)[C@H]3COC(=O)[C@@H]23)OCO4)cc(OC)c1OC | > 4 mM (inactive)
CC(C)CCCC(C)C1CCC2C3C[C@@H](O)[C@@]4(O)C[C@@H](O)CC[C@]4(C)C3CC[C@]12C (stereo not given in full) | > 4 mM (inactive)
COC(=O)c1cc(-c2c[nH]c3ccccc23)n[nH]1 | > 4 mM (inactive)
CN(C)c1ccc(/C=C2/NC(=S)NC2=O)cc1 | > 4 mM (inactive)
NC(c1ccccc1)c1ccccn1 (stereo not given) | > 4 mM (inactive)
O=C1CSC(=Nc2ccc(C(=O)O)cc2)N1 | > 4 mM (inactive)
CCOC(=O)c1cnc2cc(C)nn2c1C | > 4 mM (inactive)
COc1ccc(N=C2NC(=O)CS2)cc1 | > 4 mM (inactive)
c1ccc(CCN2CCN(CCc3ccccn3)CC2)nc1 | > 4 mM (inactive)
CNC(=O)C(=O)Nc1c(C)cccc1C | > 4 mM (inactive)

Compound | Kd
CC(=O)c1c(C)n(O)c2ccc3nonc3c12 | > 4 mM (inactive)
O=C1CS/C(=N/N=C/c2cccs2)N1 | > 4 mM (inactive)
O=C(Nc1ccccc1C(F)(F)F)N1CCCCCC1 | > 4 mM (inactive)
NC(=O)C1CCN(c2ncnc(N)c2[N+](=O)[O-])CC1 | > 4 mM (inactive)
COc1ccc(-c2cc(=O)c3c(OC(C)=O)cc(OC(C)=O)cc3o2)cc1 | > 4 mM (inactive)
O=C(Nc1c[nH]c(=O)[nH]c1=O)c1cccs1 | > 4 mM (inactive)
COc1ccc(-c2coc3cc(O)ccc3c2=O)c(OC)c1 | > 4 mM (inactive)
C[C@@H]1[C@H]2[C@H](O[C@@H]3O[C@H](CO)[C@@H](O)[C@H](O)[C@H]3O)OC=C(C(=O)O)[C@H]2C[C@@H]1O | > 4 mM (inactive)
O=C(Nc1ccon1)c1ccc2c(c1)OCO2 | > 4 mM (inactive)
CC(C)=CCc1c(O)cc2oc(C)cc(=O)c2c1O | > 4 mM (inactive)
CCOc1ccc(Cl)cc1S(=O)(=O)N1CCCC1 | > 4 mM (inactive)
CC(C)=CCOc1cc2oc(=O)ccc2cc1O | > 4 mM (inactive)
C[C@@H]1CC[C@@]23CCC4(C)[C@@](C=CC5[C@@]6(C)CC[C@H](O)C(C)(C)C6CC[C@]54C)(OC2=O)C3[C@H]1C (stereo not given in full) | > 4 mM (inactive)
O=C(O)c1ccc2occc2c1 | > 4 mM (inactive)
COc1ccc(N2C(=N)C(C)(C)NC2=O)cc1 | > 4 mM (inactive)
CC1CCC(N2CCN(c3ncccn3)CC2)CC1 (stereo not given) | > 4 mM (inactive)
COC(=O)C1Cc2ccccc2N1 (stereo not given) | > 4 mM (inactive)
NC(=O)C1CCN(C(=O)c2ccccc2)CC1 | > 4 mM (inactive)
CC(=O)OC1CCC2(C)C3CC(=O)C4(C)C(CC5OC6(CCC(C)CO6)[C@@H](C)C54)C3CC[C@H]2C1 (stereo not given in full) | > 4 mM (inactive)
CN(C)S(=O)(=O)c1ccc(N2CCOCC2)nc1 | > 4 mM (inactive)

Compound | Kd
CN1C2CC(OC(=O)[C@H](CO)c3ccccc3)C[C@H]1[C@H]1OC21 (stereo not given in full) | > 4 mM (inactive)
CC(=O)c1sc(NC(=O)C=C(C)C)nc1C | > 4 mM (inactive)
O=C(NCc1ccco1)c1ccc(=O)[nH]c1 | > 4 mM (inactive)
O=[N+]([O-])c1ccc(/C=N/c2ncn[nH]2)cc1 | > 4 mM (inactive)
O=C(Oc1ccc(-c2nnco2)cc1)N1CCOCC1 | > 4 mM (inactive)
O=C(NCO)c1ccc([N+](=O)[O-])cc1 | > 4 mM (inactive)
Cc1cc(C(=O)Nc2ccc3c(c2)OCO3)cs1 | > 4 mM (inactive)
CC(=O)O[C@H]1C[C@@H](OC(C)=O)C(C)(C)C2CC(=O)[C@]3(C)C(CC[C@@]4(C)[C@H](c5ccoc5)OC(=O)[C@H]5O[C@]543)[C@]21C (stereo not given in full) | > 4 mM (inactive)
Cc1nc(N)sc1C(=O)Nc1nccs1 | > 4 mM (inactive)
NCC(N)C(=O)c1ccccc1 (stereo not given) | > 4 mM (inactive)
NC(=O)NC1C=CS(=O)(=O)C1 (stereo not given) | > 4 mM (inactive)
CS(=O)(=O)N1CCN(C(=O)c2ccccc2F)CC1 | > 4 mM (inactive)
c1ccc(Cc2nnc3sc(-c4cccnc4)nn23)cc1 | > 4 mM (inactive)
O=C(O)c1cccc2c1OCCCO2 | > 4 mM (inactive)
C[C@]12C=CC(=O)C=C1CCC1C2CC[C@]2(C)C(=O)CCC12 (stereo not given in full) | > 4 mM (inactive)
OC1CCN(C(=S)NC2CC2)CC1 | > 4 mM (inactive)
CC(=O)Nc1ccc(N2CCOCC2)cc1 | > 4 mM (inactive)
CC1(C)N=C2C(=N)C=CC=C2N1O | > 4 mM (inactive)
COc1cccc(C(=O)N2CCOCC2)c1 | > 4 mM (inactive)
O=C(O)C1Cc2ccccc2O1 (stereo not given) | > 4 mM (inactive)
